Where a name gives a salt, the structure may show the parent alone.

One assay deals with T1, glycine transporter-1 (GlyT-1) (Homo sapiens, UniProt P48067).
T1 construct: JAR cells (ATCC#HTB-144), which endogenously express GlyT-1; host or cells: JAR human choriocarcinoma cells
T1 sequence (P48067 1-706): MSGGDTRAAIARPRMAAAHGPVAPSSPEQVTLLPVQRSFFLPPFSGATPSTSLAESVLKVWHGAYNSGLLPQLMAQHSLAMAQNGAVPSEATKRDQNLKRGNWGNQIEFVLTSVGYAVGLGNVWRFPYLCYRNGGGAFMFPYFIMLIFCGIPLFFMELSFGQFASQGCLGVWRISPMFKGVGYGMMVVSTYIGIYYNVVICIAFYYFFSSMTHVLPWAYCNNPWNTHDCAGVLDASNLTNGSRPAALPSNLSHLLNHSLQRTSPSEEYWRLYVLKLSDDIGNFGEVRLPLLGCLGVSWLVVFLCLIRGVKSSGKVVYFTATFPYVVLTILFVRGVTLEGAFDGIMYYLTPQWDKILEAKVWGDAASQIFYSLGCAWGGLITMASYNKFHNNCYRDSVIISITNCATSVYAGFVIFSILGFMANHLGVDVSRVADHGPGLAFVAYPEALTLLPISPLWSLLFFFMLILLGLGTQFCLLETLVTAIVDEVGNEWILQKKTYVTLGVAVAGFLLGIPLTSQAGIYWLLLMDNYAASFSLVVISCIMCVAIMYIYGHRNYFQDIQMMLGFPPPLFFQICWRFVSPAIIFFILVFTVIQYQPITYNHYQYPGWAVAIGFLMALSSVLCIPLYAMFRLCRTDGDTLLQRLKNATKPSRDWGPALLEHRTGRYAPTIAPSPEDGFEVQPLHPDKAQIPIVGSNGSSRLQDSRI
Put plainly: [14C]glycine uptake assay in JAR cells endogenously expressing GlyT-1 (scintillation proximity). It is filed as cell-based. As to conditions: GlyT-1 IC50 (nM). The procedure, abridged: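 Human choriocarcinoma JAR cells (endogenous GlyT-1) attached overnight, then pre-incubated 10 min at room temperature with compound in pH 7.4 Hepes uptake buffer containing 5 mM alanine and 0.75% DMSO. Uptake of 5 μM [14C]glycine over 3 h at 37 °C read by scintillation proximity; IC50 from four-parameter fit of nine-point curves.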
For orientation: In a scintillation proximity assay essentially only radioactivity close to the scintillant gives light.
The compound `CCCS(=O)(=O)N1CCN(C2(CNC(=O)c3c(F)cccc3F)CC3CC3C2)CC1` (stereo not drawn) [compound 199, 2,6-Difluoro-N-((3-(4-(propylsulfonyl)piperazin-1-yl)bicyclo[3.1.0]hexan-3-yl)methyl)benzamide Hydrochloride] showed a half-inhibitory concentration (IC50) of 621 nM.

Staying with this assay, now noted: JAR cells, [14C]glycine 5 μM, 3 hour incubation; read-out: GlyT-1 IC50.
For `Cn1ccc(S(=O)(=O)N2CCN(C3(CNC(=O)c4ccc(C(F)(F)F)cc4Cl)CCC(F)(F)CC3)CC2)n1` [compound 283, 2-Chloro-N-((4,4-difluoro-1-(4-(1-methyl-1H-pyrazol-3-ylsulfonyl)piperazin-1-yl)cyclohexyl)methyl)-4-(trifluoromethyl)benzamide Hydrochloride], the half-maximal inhibitory concentration (IC50) is 2410 nM.

Regarding `CCCS(=O)(=O)N1CCN(C2(C(C)NC(=O)c3c(F)cccc3F)CCC(F)(F)CC2)CC1` (stereo not drawn) [compound 197, N-(1-(4,4-Difluoro-1-(4-(propylsulfonyl)piperazin-1-yl)cyclohexyl)ethyl)-2,6-difluorobenzamide Hydrochloride], the IC50 was 304 nM.

On to `CCS(=O)(=O)N1CCN(C2(CNC(=O)c3cc(F)c(F)cc3Cl)CCC(F)(F)CC2)CC1` [compound 214, 2-Chloro-N-((1-(4-(ethylsulfonyl)piperazin-1-yl)-4,4-difluorocyclohexyl)methyl)-4,5-difluorobenzamide Hydrochloride], for which the IC50 is 329 nM.

For the compound “N-((4,4-Difluoro-1-(1-(1- methyl-1H-1,2,3-triazol-4- ylsulfonyl)piperidin-4- yl)cyclohexyl)methyl)-2,4- bis(trifluoromethyl) benzamide [compound 274]”, the concentration for half-maximal inhibition (IC50) is 3 nM.

`CCCS(=O)(=O)N1CCN(C2(CNC(=O)c3ccc(F)cc3Cl)CCC(F)(F)CC2)CC1` [compound 154, 2-Chloro-N-((4,4-difluoro-1-(4-(propylsulfonyl)piperazin-1-yl)cyclohexyl)methyl)-4-fluorobenzamide Hydrochloride]: the half-maximal inhibitory concentration (IC50) turned out to be 38 nM.

In the case of `Cn1cc(S(=O)(=O)N2CCN(C3(CNC(=O)c4c(Cl)cccc4Cl)CCC(F)(F)CC3)CC2)nn1` [compound 190, 2,6-Dichloro-N-((4,4-difluoro-1-(4-(1-methyl-1H-l,2,3-triazol-4-ylsulfonyl)piperazin-1-yl)cyclohexyl)methyl) benzamide Hydrochloride], the 50% inhibitory concentration (IC50) amounted to 1 nM.

Consider `Cc1ccccc1C(=O)NCC1(N2CCN(S(=O)(=O)c3cn(C)cn3)CC2)CCC(F)(F)CC1` [compound 179, N-((4,4-difluoro-1-(4-(1-methyl-1H-imidazol-4-ylsulfonyl)piperazin-1-yl)cyclohexyl)methyl)-2-methylbenzamide Hydrochloride], for which the 50% inhibitory concentration (IC50) is 25 nM.

With `Cc1cc(F)c(C(=O)NCC2(N3CCN(S(=O)(=O)c4cn(C)nn4)CC3)CCC(F)(F)CC2)cc1F` [compound 239, N-((4,4-Difluoro-1-(4-(1-methyl-1H-1,2,3-triazol-4-ylsulfonyl)piperazin-1-yl)cyclohexyl)methyl)-2,5-difluoro-4-methylbenz-amide Hydrochloride], the 50% inhibitory concentration (IC50) came out at 20 nM.

As for `CCCS(=O)(=O)N1CCN(C2(CNC(=O)c3ccc(Cl)cc3)CCCC2)CC1` [compound 73, 4-Chloro-N-((1-(4-(propylsulfonyl)piperazin-1-yl)cyclopentyl)methyl) benzamide Hydrochloride], the IC50 is 1990 nM.

For `CCS(=O)(=O)N1CCN(C2(CNC(=O)c3ccc(C(F)(F)F)cc3C(F)(F)F)CCC(F)(F)CC2)CC1` [compound 204, N-((1-(4-(Ethylsulfonyl)piperazin-1-yl)-4,4-difluorocyclohexyl)methyl)-2,4-bis(trifluoromethyl) benzamide Hydrochloride], the IC50 was 95 nM.

As to `Cn1cnc(S(=O)(=O)N2CCN(C3(CNC(=O)c4c(F)cccc4OC(F)F)CCC(F)(F)CC3)CC2)c1` [compound 188, N-((4,4-Difluoro-1-(4-(1-methyl-1H-imidazol-4-ylsulfonyl)piperazin-1-yl)cyclohexyl)methyl)-2-(difluoromethoxy)-6-fluorobenzamide Hydrochloride], the half-maximal inhibitory concentration (IC50) came out at 1 nM.

A word on the IC50: it is the concentration at which inhibition is half-maximal.

For the origin of these results see patent US9045445B2, “Glycine transporter-1 inhibitors, methods of making them, and uses thereof” (Albany Molecular Research, Inc., priority 2010, dated 2015).
